Entries after “also recorded” stand apart in the source; their conditions may differ.
Legend:
[1] = test system: RBC from healthy subjects; assay: Effect on morphology of RBC from healthy subjects; assay type: cell-based, human
Experimental: (§1) Red Blood Cell (RBC) sickling were studied in blood samples obtained from 12 sickle cell subjects and 6 samples from healthy volunteers matched in terms of age and gender. The blood samples from the subjects were withdrawn and mixed into EDTA tube (10 ml), and then divided into 2 tubes 4-5 ml each (One containing S-NACH 10-100 ug/ml blood added at 10 ul/1 ml blood or PBS buffer solution).
(§2) Blood samples were incubated for 2-3 hours at room temperature and then blood smears were obtained for monitoring shape of RBCs (take photos for later quantitation number of normal vs. sickle RBCs). Then blood samples were centrifuged to get the plasma, and the plasma were frozen for further testing of various biomarkers.

RBC from SCD subjects = assay: Anti-sickling of RBC from SCD subjects under hypoxia (blood smears); assay type: cell-based, human; conditions: for anti-sickling (average): 10 ug/ml blood
Experimental: as §1, §2

[2] = Plasma tinzaparin level after oral administration to mice (colorimetric assay); assay type: in vivo; conditions: oral gavage, 1.6 mg/kg
Experimental: Nanoformulated LMWH as shown in Examples 1-5 were administered orally to mice versus standard LMWH at the same dose. Blood samples were withdrawn at different time and plasma levels of LMWH were measured using colorimetric assay.
FIG. 11 is a graph of plasma tinzaparin level versus time profiles in mice with formulations administered by oral gavage into the mice at dose of 1.6 mg/kg, in accordance with embodiments of the present invention. Graphs for Tinzaparin, and Chitosan NPs with positive charge and with negative charge are shown. Data are shown as mean±SD (n=4).

Molecule: Sulfated Non-Anticoagulant Heparin [SNACH]
- effect on normal morphology of RBC [1]: no effect; also recorded: without any effect
- anti-sickling (average) (RBC from SCD subjects; hypoxia 2-4 hours at 25 degree centigrade, SCD subject #5): > 90%
- anti-sickling (average) (RBC from SCD subjects; hypoxia 2-4 hours at 25 degree centigrade, SCD subjects): > 90%
- formation of irreversibly sickled cells (RBC from SCD subjects; 2-24 hours incubation under 95% N2/5% CO2, high concentration): significantly decreased

Molecule: OC[C@H]1O[C@@](CO)(O[C@H]2O[C@H](CO)[C@@H](O)[C@H](O)[C@H]2O)[C@@H](O)[C@@H]1O [sucrose, reference compound]
- effect on the average % of sickle RBC (RBC from SCD subjects; Patient #7, over 2-4 hours hypoxia at 25 degree centigrade): no significant effect
- effect on the sickling (RBC from SCD subjects; Patient #7 acute crisis, hypoxia 2-4 hours at 25 degree centigrade): no significant effect

Molecule: Tinzaparin [standard tinzaparin]
- blood levels after oral administration [2]: no detectable blood levels
